Results as given in patent US20070219180A1, “Muscle Relaxtion Accelerator and Therapeutic Agent for Muscular Tissue Diseases Such as Muscle Relaxation Failure” (priority 2004, published 2007).

Tested on: binding of troponin I to the actin-tropomyosin complex
Test: Experiment 4 and comparison example: co-precipitation (binding) of troponin I with the actin-tropomyosin complex in the presence of EGTA
Set-up: species or system swine
Settings: for Precipitate of troponin I (ratio to the sample without drug): 10 mM EGTA, 100,000×g 120 min 25° C.
Description: The actin-tropomyosin complex and the troponin C-I complex are usually detected by analyzing the precipitate obtained by ultracentrifugation of a mixture containing the actin-tropomyosin complex and the troponin C-I complex for 120 minutes at 100,000×g at 25° C. The binding of the troponin C-I complex to the actin-tropomyosin complex in muscle tissues can be confirmed by the detected actin-tropomyosin complex and the detected troponin C-I complex. For example, when a mixture containing the actin-tropomyosin complex and the troponin C-I complex is ultracentrifuged in the presence of EGTA as a calcium chelating agent (in other words, in the absence of calcium ions), the actin-tropomyosin complex and the troponin C-I complex combine each other to precipitate together. Detection of troponin I in the precipitate using SDS-gel electrophoresis allows confirmation that the precipitate contains a complex formed by the actin-tropomyosin complex and the troponin C-I complex.
A precipitate due to binding of the actin-tropomyosin complex and troponin I is usually not formed when a mixture containing the actin-tropomyosin complex, troponin and propranolol (a β-blocker) used as a therapeutic agent for heart failure is ultracentrifuged at 100,000×g for 120 minutes 25° C.
Swine muscle-derived actin, chicken gizzard-derived tropomyosin and swine myocardium-derived troponin used in this experiment were purchased from Sigma-Aldrich Corporation, and other unspecified reagents used in this experiment were purchased from Wako Pure Chemical Industries Ltd.
A 500 μl sample was prepared by adding 4.2 μg of actin, 2.1 μg of tropomyosin and 14 μg of troponin to 500 μl of a reaction solution containing 60 mM KCl, 20 mM MOPS (3-morpholinopropanesulfonic acid), 2 mM of MgCl2, 0.05 μg of pepstatin A, and 15 mM 2-mercaptoethanol. After centrifugation of this sample at 2,000×g for 10 minutes at 25° C., the precipitate was removed and the resulting supernatant was distributed to separate test tubes containing 10 mM of EGTA, and each tube was determined as a test sample.
Each test sample was reacted for 120 minutes at 25° C. and centrifuged at 100,000×g for 120 minutes at 25° C., and the supernatants were removed. After reaction solution was gently added to the removed precipitate so as not to suspend the precipitate, the precipitate was again removed by suction, washed, and determined as a test precipitate.
A sample buffer for polyacrylamide gel electrophoresis (SDS-PAGE) was added to each washed test precipitate and mixed well to suspend the test precipitate. The resulting suspension was electrophoresized on a gel (PAG MINI “No. 1” 10/20) for about 1 hour at 40 mA. After electrophoresis, the suspension was silver-stained using “Daiichi” 2D-silver staining reagent (Daiichi Pure Chemicals Co., Ltd), and washed with distilled water and dried. The amount of precipitate in each silver-stained protein band obtained by gel electrophoresis was quantitated using a densitometer.
The amounts of precipitate of troponin I in the second to fifth test precipitates were calculated as ratios of the amount of precipitate of troponin I in the first test precipitate, which was obtained without the compound (the concentration of the compound was 0 M).
The affinity of troponin I for the actin-tropomyosin complex was measured using the same method as in Experiment 4, but using propranolol (a β-blocker which is used as a therapeutic agent for heart failure) for comparison with the compound in the invention.
A 500 μl sample was prepared by adding 4.2 μg of actin, 2.1 μg of tropomyosin and 14 μg of troponin I to 500 μl of a reaction solution containing 60 mM KCl, 20 mM MOPS (3-morpholinopropanesulfonic acid), 2 mM MgCl2, 0.05 μg of pepstatin A, and 15 mM 2-mercaptoethanol. […]

- Precipitate of troponin I (ratio to the sample without drug) (drug concentration 10^−4 mol): 1.1
- Precipitate of troponin I (ratio to the sample without drug) (drug concentration 10^−5 mol): 0.9
- Precipitate of troponin I (ratio to the sample without drug) (drug concentration 10^−6 mol): 1.1
- Precipitate of troponin I (ratio to the sample without drug) (drug concentration 10^−7 mol): 0.9
SMILES: CC(C)NCC(O)COc1cccc2ccccc12 (centres unmarked) [Propranolol, propranolol]
- Effect on the bonding strength of troponin I to the actin-tropomyosin complex (co-precipitation) (ultracentrifugation 100,000×g, 120 minutes, 25° C.): does not enhance the bonding strength of troponin to the actin-tropomyosin complex
